Assay results published in EPA's ToxValDB 9.5 (doi:10.2903/j.efsa.2012.2879).
Converted amounts (≈) assume the structure as drawn.

How the values were obtained:
Daphnia magna = conditions: chronic/long-term; duration: 21 days; reproduction
Apis mellifera = conditions: acute; duration: 48 hours; dermal; mortality
Colinus virginianus = conditions: acute, oral, mortality

Structure (SMILES): Cc1cc(C)c(C2=C(OC(=O)CC(C)(C)C)C3(CCCC3)OC2=O)c(C)c1 [Spiromesifen]
- NOAEL (Mus musculus; chronic, duration: 18 months): 3 mg/kg-day
- NOAEL (Mus musculus; subchronic, duration: 90 days, oral, clinical chemistry): 3 mg/kg-day
- NOEC (Daphnia magna): 0.00025 mg/L
- LD50 (Apis mellifera): > 200 µg/piece
- NOAEL (Rattus norvegicus; acute, neurology): 2000 mg/kg-day
- LD50 (Rattus norvegicus; acute, oral, mortality): > 2500 mg/kg
- NOEC (Rattus norvegicus; reproduction developmental, reproduction): 30 mg/kg-day
- NOEC (Anas platyrhynchos; reproductive, reproduction): 229 mg/kg
- LC50 (Anas platyrhynchos; short-term, oral, feed, mortality): > 5000 mg/kg
- LC50 (Colinus virginianus; diet): > 5000 mg/kg
- LD50 (Colinus virginianus): > 2000 mg/kg
- LC50 (Tagia sp.; acute, duration: 14 days, mortality): > 1000 mg/kg
- NOEC (Tagia sp.; chronic/long-term, duration: 56 days, reproduction): 4.32 mg/kg
- LC50 (Oncorhynchus mykiss; acute, duration: 96 hours, mortality): 0.016 µg/mL (≈ 0.0432 µM)
- NOEC (Oncorhynchus mykiss; chronic/long-term, duration: 97 days): 0.00473 mg/L
